In ChEMBL document CHEMBL3822377, “Locking PDK1 in DFG-out conformation through 2-oxo-indole containing molecules: Another tools to fight glioblastoma” (Eur J Med Chem, 2016) one finds inhibition, IC50 and AC50 data, which are given here for 15 compounds.

Broadly, the inhibition is the share of the control response that was lost under treatment. High values mean strong suppression, low ones little suppression. The IC50 is the midpoint of a concentration-inhibition curve. Read a low IC50 as greater potency. One may read the AC50 as the concentration at which the activity in the assay is half-maximal.

Structures are written as SMILES.

One assay deals with T1, 3-phosphoinositide-dependent protein kinase 1 (Homo sapiens) (UniProt O15530).
T1 sequence (whole entry): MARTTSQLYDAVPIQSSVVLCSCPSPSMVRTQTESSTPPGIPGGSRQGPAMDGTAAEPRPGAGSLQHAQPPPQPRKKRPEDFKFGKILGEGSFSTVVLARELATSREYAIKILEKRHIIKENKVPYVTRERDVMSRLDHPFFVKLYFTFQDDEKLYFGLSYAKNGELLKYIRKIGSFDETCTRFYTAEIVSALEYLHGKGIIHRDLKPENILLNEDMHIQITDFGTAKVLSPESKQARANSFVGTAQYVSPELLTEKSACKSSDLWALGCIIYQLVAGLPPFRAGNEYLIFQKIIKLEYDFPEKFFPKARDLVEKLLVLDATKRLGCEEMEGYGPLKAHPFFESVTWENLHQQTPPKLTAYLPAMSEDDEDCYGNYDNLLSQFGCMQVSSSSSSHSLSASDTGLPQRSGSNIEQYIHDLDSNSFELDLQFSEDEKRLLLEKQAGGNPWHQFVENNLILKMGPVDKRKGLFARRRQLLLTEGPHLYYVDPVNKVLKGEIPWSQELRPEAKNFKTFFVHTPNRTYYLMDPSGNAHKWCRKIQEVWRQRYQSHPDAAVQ
The experiment in a line: Inhibition of PDK1 (unknown origin) at 10 uM by FRET-based Z-lyte assay.
Conditions: not given
As for `Cn1ccnc1/C=C1/C(=O)Nc2ccc(NC(=O)c3cccn(Cc4ccc(F)c(F)c4)c3=O)cc21`, the inhibition was below 10%.
In the case of `O=C1Nc2ccc(NC(=O)[C@H](NC(=O)c3cccn(Cc4ccc(F)c(F)c4)c3=O)c3ccccc3)cc2/C1=C/c1cccs1`, the inhibition is below 10%.
Consider `O=C1Nc2ccc(NC(=O)c3cccn(Cc4ccc(F)c(F)c4)c3=O)cc2/C1=C/c1cccs1`, for which the inhibition was below 10%.
Turning to `O=C1Cc2cc(NC(=O)[C@H](NC(=O)c3cccn(Cc4ccc(F)c(F)c4)c3=O)c3ccccc3)ccc2N1`, the inhibition is below 10%.
Consider `O=C1Nc2ccc(NC(=O)c3cccn(Cc4ccc(F)c(F)c4)c3=O)cc2/C1=C\c1ccc(F)cc1`, for which the inhibition was below 10%.
With `O=C(CNC(=O)c1cccn(Cc2ccc(F)c(F)c2)c1=O)Nc1ccc2c(c1)CC(=O)N2`, the inhibition is 57%.
The same measure, in the same setting: next, `O=C(CNC(=O)c1cccn(Cc2ccc(F)c(F)c2)c1=O)Nc1ccc2c(c1)/C(=C/c1cccs1)C(=O)N2`: 19%.
Compound `O=C(CNC(=O)c1cccn(Cc2ccc(F)c(F)c2)c1=O)Nc1ccc2c(c1)/C(=C\c1ccc(F)cc1)C(=O)N2` registered an inhibition below 10%.
The same measure, in the same setting: next, `O=C1Nc2ccc(NC(=O)c3cccn(Cc4ccc(F)c(F)c4)c3=O)cc2/C1=C/c1cnc[nH]1`: 64%; `O=C1Nc2ccc(NC(=O)[C@H](NC(=O)c3cccn(Cc4ccc(F)c(F)c4)c3=O)c3ccccc3)cc2/C1=C\c1ccc(F)cc1`: below 10%.
The compound `O=C1Nc2ccc(NC(=O)[C@H](NC(=O)c3cccn(Cc4ccc(F)c(F)c4)c3=O)c3ccccc3)cc2/C1=C/c1cnc[nH]1` yielded an inhibition of 95%.
Turning to `O=C1Nc2ccc(NC(=O)[C@H](NC(=O)c3cccn(Cc4ccc(F)c(F)c4)c3=O)c3ccccc3)cc2/C1=C/c1ncc[nH]1`, the inhibition is 74%.
`O=C1Cc2cc(NC(=O)c3cccn(Cc4ccc(F)c(F)c4)c3=O)ccc2N1`: the inhibition was below 10%.

Test system in a further assay: not listed separately
As to the kind of experiment: Antiproliferative activity against human U87MG cells after 72 hrs. Format: functional, cell-based, U-87MG ATCC. The following applies: U-87 MG.
The compound `O=C(N[C@@H](COc1ccc2[nH]c(=O)[nH]c2c1)c1ccccc1)c1cccn(Cc2ccc(F)c(F)c2)c1=O` registered an IC50 above 30 µM.

Another assay concerns the target 3-phosphoinositide-dependent protein kinase 1 (Homo sapiens, UniProt O15530). As to the kind of experiment: Inhibition of PDK1 (unknown origin) using AKT(Thr-308)-tide substrate.
Conditions: not given
Compound `O=C(CC(c1ccccc1)C(C(=O)O)C(=O)O)c1ccc(C(F)(F)F)cc1` (stereo not given) gave an AC50 of 2 µM.
